We go through five compounds from ChEMBL document CHEMBL1149677, “Synthesis of fluorescent and photoaffinity-labeled derivatives of bisphenol A and their inhibitory activity toward hypoxic expression of erythropoietin” (Bioorg Med Chem Lett, 2007).

Holding throughout (assay type): functional, cell-based
Assay [1] deals with Hep 3B2. Kind of assay: Inhibition of erythropoietin expression in human Hep3B cells.
Assay [2] has as its system Hep 3B2. Kind of assay: Inhibition of erythropoietin expression in human Hep3B cells at 200 uM.
Assay [3] has as its system Hep 3B2. Kind of assay: Inhibition of erythropoietin expression in human Hep3B cells at 300 uM.

The source made the active and inactive calls. No cut-off for these calls is given here.

As to `COCOc1ccc(C(C)(C)c2ccc(OCCCCOc3ccc(C4(C(F)(F)F)N=N4)cc3)cc2)cc1`, in assay [1], the outcome was inactive.

On to `CC(C)(c1ccc(OCCCCNc2ccc([N+](=O)[O-])c3nonc23)cc1)c1ccc(OCCCCOc2ccc(C3(C(F)(F)F)N=N3)cc2)cc1`, for which the result in assay [2] was Active.

On to `CC(C)(c1ccc(OCCNc2ccc([N+](=O)[O-])c3nonc23)cc1)c1ccc(OCCOc2ccc(C3(C(F)(F)F)N=N3)cc2)cc1`, for which the outcome in assay [3] was Active.

In the case of `CC(C)(c1ccc(O)cc1)c1ccc(OCCCCNc2ccc([N+](=O)[O-])c3nonc23)cc1`, the result in assay [1] was Active.

For the compound `COCOc1ccc(C(C)(C)c2ccc(OCCCCNc3ccc([N+](=O)[O-])c4nonc34)cc2)cc1`, in assay [1], the outcome was Active.
